Assays:
[1] = tested on: penile erection in male Sprague-Dawley rats; experiment: Induction of penile erection in male rats; type: in vivo, rat; conditions: for observed spontaneous erections compared to vehicle controls: rat model
[2] = target: T1, hMC4-R (Homo sapiens, UniProt P32245); experiment: Competitive inhibition binding assay using NDP-α-MSH, MC4-R; conditions: for Ki: competitive studies using NDP-α-MSH, human recombinant receptor, average of studies
T1 construct: expressed in transfected cells; host or cells: HEK-293
T1 sequence (P32245 whole entry): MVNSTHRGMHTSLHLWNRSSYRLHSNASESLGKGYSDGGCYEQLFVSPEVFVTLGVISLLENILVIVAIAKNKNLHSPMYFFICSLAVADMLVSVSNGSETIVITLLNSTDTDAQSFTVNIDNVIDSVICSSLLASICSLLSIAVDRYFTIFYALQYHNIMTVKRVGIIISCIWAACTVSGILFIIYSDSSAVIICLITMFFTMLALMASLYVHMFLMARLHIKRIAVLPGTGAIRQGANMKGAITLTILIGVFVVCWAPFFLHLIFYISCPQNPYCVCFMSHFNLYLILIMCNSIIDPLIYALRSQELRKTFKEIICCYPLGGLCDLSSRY
Experimental: A competitive inhibition binding assay is performed using membrane homogenates prepared from HEK-293 cells that express recombinant hMC4-R, hMC3-R, or hMC5-R, and from B-16 mouse melanoma cells (containing endogenous MC1-R). In some instances, HEK-293 cells that express recombinant hMC1-R were employed. In the examples that follow, all MC3-R, MC4-R and MC5-R values are for human recombinant receptors. MC1-R values are for B-16 mouse melanoma cells, unless the heading is “hMC1-R”, in which case the value is for human recombinant MC1-R. Assays were performed in 96 well GF/B Millipore multiscreen filtration plates (MAFB NOB10) pre-coated with 0.5% bovine serum albumin (Fraction V). Membrane homogenates were incubated with 0.2 nM (for hMC4-R) 0.4 nM (for MC3-R and MC5-R) or 0.1 nM (for mouse B16 MC1-R or hMC1-R) [I^125]-NDP-α-MSH (Perkin Elmer) and increasing concentrations of cyclic peptides of the present invention in buffer containing 25 mM HEPES buffer (pH 7.5) with 100 mM NaCl, 2 mM CaCl2, 2 mM MgCl2, 0.3 mM 1,10-phenanthroline, and 0.2% bovine serum albumin. After incubation for 60 minutes at 37° C., the assay mixture was filtered and the membranes washed three times with ice-cold buffer. Filters were dried and counted in a gamma counter for bound radioactivity. […] Maximal specific binding (100%) was defined as the difference in radioactivity (cpm) bound to cell membranes in the absence and presence of 1 μM NDP-α-MSH. […] Ki values for cyclic peptides of the present invention were determined using Graph-Pad Prism® curve-fitting software. […]
Alternatively, a competitive inhibition binding assay was performed employing Eu-NDP-α-MSH (PerkinElmer Life Sciences catalog No. AD0225) with determination by time-resolved fluorometry (TRF) of the lanthanide chelate. […] The plates were incubated on a shaker for 15 minutes and read at 340 nm excitation and 615 nm emission wavelengths. […] Ki values were determined by curve-fitting with Graph-Pad Prism® software using a one-site fixed-slope competition binding model. […]

[3] = target: T1, hMC4-R; experiment: Assay for agonist activity (cAMP accumulation in HEK-293 cells expressing hMC4-R); type: cell-based
Experimental: Accumulation of intracellular cAMP is examined as a measure of the ability of the cyclic peptides of the present invention to elicit a functional response in HEK-293 cells that express MC4-R. Confluent HEK-293 cells that express recombinant hMC4-R were detached from culture plates by incubation in enzyme-free cell dissociation buffer. Dispersed cells were suspended in Earle's Balanced Salt Solution containing 10 mM HEPES (pH 7.5), 1 mM MgCl2, 1 mM glutamine, 0.5% albumin and 0.3 mM 3-isobutyl-1-methyl-xanthine (IBMX), a phosphodiesterase inhibitor. The cells were plated in 96-well plates at a density of 0.5×10^5 cells per well and pre-incubated for 30 minutes. Cells were exposed for 1 hour at 37° C. to test cyclic peptides of the present invention dissolved in DMSO (final DMSO concentration of 1%) at a concentration range of 0.05-5000 nM in a total assay volume of 200 μL. NDP-α-MSH was used as the reference agonist. At the end of the incubation period, cells were disrupted by the addition of 50 μL of lysis buffer (cAMP EIA kit, Amersham) followed by vigorous pipetting. Levels of cAMP in the lysates were determined using a cAMP EIA kit (Amersham). Data analysis was performed by nonlinear regression analysis with Graph-Pad Prism® software. The maximum efficacies of the cyclic peptides of the present invention were compared to that achieved by the reference melanocortin agonist NDP-αMSH.

[4] = tested on: systolic blood pressure; conditions: rat, in vivo
Excerpt: In other studies, including comparisons of the same quantities of the cyclic peptide of Example 8.1 and bremelanotide by the same routes of administration, substantially similar results were obtained. […] In other studies, including comparisons of the same quantities of the cyclic peptide of Example 8.4 and bremelanotide by the same routes of administration, substantially similar results were obtained.

[5] = target: T2, MC1-R (B-16 mouse melanoma cells) (Mus musculus, UniProt Q01727); experiment: Competitive inhibition binding assay using NDP-α-MSH, MC1-R; conditions: competitive studies using NDP-α-MSH
T2 construct: from B-16 mouse melanoma cells (containing endogenous MC1-R); endogenous in cells; host or cells: B-16 mouse melanoma cells
T2 sequence (Q01727 whole entry): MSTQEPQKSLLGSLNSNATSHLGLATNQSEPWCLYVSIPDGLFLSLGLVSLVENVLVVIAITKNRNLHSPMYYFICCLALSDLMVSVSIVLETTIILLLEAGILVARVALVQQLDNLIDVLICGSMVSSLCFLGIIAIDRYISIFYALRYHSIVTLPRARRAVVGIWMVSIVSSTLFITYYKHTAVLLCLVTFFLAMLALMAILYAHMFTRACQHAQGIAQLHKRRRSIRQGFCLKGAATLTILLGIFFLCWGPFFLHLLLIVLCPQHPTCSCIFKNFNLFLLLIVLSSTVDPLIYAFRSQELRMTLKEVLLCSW
Experimental: (§1) A competitive inhibition binding assay is performed using membrane homogenates prepared from HEK-293 cells that express recombinant hMC4-R, hMC3-R, or hMC5-R, and from B-16 mouse melanoma cells (containing endogenous MC1-R). In some instances, HEK-293 cells that express recombinant hMC1-R were employed. In the examples that follow, all MC3-R, MC4-R and MC5-R values are for human recombinant receptors. MC1-R values are for B-16 mouse melanoma cells, unless the heading is “hMC1-R”, in which case the value is for human recombinant MC1-R. Assays were performed in 96 well GF/B Millipore multiscreen filtration plates (MAFB NOB10) pre-coated with 0.5% bovine serum albumin (Fraction V). […] Filters were dried and counted in a gamma counter for bound radioactivity. […] Maximal specific binding (100%) was defined as the difference in radioactivity (cpm) bound to cell membranes in the absence and presence of 1 μM NDP-α-MSH. […] Ki values for cyclic peptides of the present invention were determined using Graph-Pad Prism® curve-fitting software. […]

[6] = target: T3, hMC5-R (Homo sapiens, UniProt P33032); experiment: Competitive inhibition binding assay using NDP-α-MSH, MC5-R; conditions: competitive studies using NDP-α-MSH; human recombinant receptor
T3 construct: expressed in transfected cells; host or cells: HEK-293
T3 sequence (P33032 whole entry): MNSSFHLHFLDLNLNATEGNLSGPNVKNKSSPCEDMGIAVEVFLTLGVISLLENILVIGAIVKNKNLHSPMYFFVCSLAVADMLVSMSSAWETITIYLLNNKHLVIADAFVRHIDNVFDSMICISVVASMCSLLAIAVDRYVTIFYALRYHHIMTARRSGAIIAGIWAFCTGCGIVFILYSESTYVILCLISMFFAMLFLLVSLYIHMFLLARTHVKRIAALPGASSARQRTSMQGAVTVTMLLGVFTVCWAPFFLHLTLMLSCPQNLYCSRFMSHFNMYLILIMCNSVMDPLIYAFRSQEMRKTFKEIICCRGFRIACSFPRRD
Experimental: as §1
(§2) Alternatively, a competitive inhibition binding assay was performed employing Eu-NDP-α-MSH (PerkinElmer Life Sciences catalog No. AD0225) with determination by time-resolved fluorometry (TRF) of the lanthanide chelate. […] The plates were incubated on a shaker for 15 minutes and read at 340 nm excitation and 615 nm emission wavelengths. […]

[7] = target: T4, hMC3-R (Homo sapiens, UniProt P41968); experiment: Competitive inhibition binding assay using NDP-α-MSH, MC3-R; conditions: competitive studies using NDP-α-MSH; human recombinant receptor
T4 construct: expressed in transfected cells; host or cells: HEK-293
T4 sequence (P41968 whole entry): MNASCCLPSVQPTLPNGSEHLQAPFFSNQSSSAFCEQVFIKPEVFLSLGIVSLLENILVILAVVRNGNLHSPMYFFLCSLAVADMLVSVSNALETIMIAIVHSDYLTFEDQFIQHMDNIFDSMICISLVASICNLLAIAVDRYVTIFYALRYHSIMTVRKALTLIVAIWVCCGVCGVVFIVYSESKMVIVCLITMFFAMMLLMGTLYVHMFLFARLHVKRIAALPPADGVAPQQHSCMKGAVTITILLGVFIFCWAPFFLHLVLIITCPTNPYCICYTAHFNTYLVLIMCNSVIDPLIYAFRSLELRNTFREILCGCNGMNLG
Experimental: as §1, §2

receptor selectivity in binding ([2]; MC1-R, MC3-R, MC4-R and MC5-R binding compared) | functional status at MC4-R ([3]; functional studies) | Ki [2] [nM] | Ki [5] [nM] | Ki [6] [nM] | Ki [7] [nM] | Emax ([3]; HEK293, NDP-α-MSH is 100%, read-out: intrinsic activity at MC4-R) [%] | EC50 ([3]; functional studies, cAMP, average of studies, read-out: EC50 at MC4-R) [nM] | SMILES | penile erections per rat per hour compared to bremelanotide (companion studies) ([1]; 3.0 μmol/kg subcutaneous vs bremelanotide 1 μmol/kg IV) | observed spontaneous erections compared to vehicle controls ([1]; subcutaneous) | spontaneous erections per rat in one hour ([1]; subcutaneous, 0.3 mg/kg, n=7) | spontaneous erections per rat in one hour ([1]; subcutaneous, 1.0 mg/kg, n=7) | increase of systolic blood pressure compared to a dose of bremelanotide producing comparable penile erection results [4] | penile erections per rat per hour compared to bremelanotide (companion studies) ([1]; 1 mg/kg subcutaneous vs bremelanotide 1 mg/kg IV) | spontaneous erections per rat in one hour ([1]; IV, 1 mg/kg, n=7, positive control)
selective for MC4-R | agonist |  |  |  |  |  |  | CC(=O)N[C@@H](CCCNC(=N)N)C(=O)N[C@H]1CC(=O)NCCCC[C@@H](C(N)=O)NC(=O)[C@H](Cc2c[nH]c3ccccc23)NC(=O)[C@H](CCCNC(=N)N)NC(=O)[C@@H](Cc2ccccc2)NC(=O)[C@H](CCN)NC1=O [Example 8.1, Ac-Arg-cyclo(Asp-Dab-D-Phe-Arg-Trp-Lys)-NH2] | same or higher penile erection results | statistically significant increase | 2.286±0.286 | 4.571±1.088 | less increase of systolic blood pressure |  | 
 | agonist | 0.65 | 1 | 300 | 74 |  |  | CC(=O)N[C@@H](CCCNC(=N)N)C(=O)N[C@H]1CCC(=O)NCCC[C@@H](C(N)=O)NC(=O)[C@H](Cc2c[nH]c3ccccc23)NC(=O)[C@H](CCCNC(=N)N)NC(=O)[C@@H](Cc2ccccc2)NC(=O)[C@H](CCN)NC1=O [Example 8.3, Ac-Arg-cyclo(Glu-Dab-D-Phe-Arg-Trp-Orn)-NH2] |  |  |  |  |  |  | 
 | agonist | 8 | 4 | 2370 | 410 | 91 | 3 | CC(=O)N[C@@H](CCCNC(=N)N)C(=O)N[C@H]1CCC(=O)NCCC[C@@H](C(=O)O)NC(=O)[C@H](Cc2c[nH]c3ccccc23)NC(=O)[C@H](CCCNC(=N)N)NC(=O)[C@@H](Cc2ccccc2)NC(=O)[C@H](CCN)NC1=O [Example 8.4, Ac-Arg-cyclo(Glu-Dab-D-Phe-Arg-Trp-Orn)-OH] |  | statistically significant increase | 2.571±0.685 | 5.286±0.918 | less increase of systolic blood pressure | same or higher penile erection results | 
 |  |  |  |  |  |  |  | CCCC[C@H](NC(C)=O)C(=O)N[C@H]1CC(=O)NCCCC[C@@H](C(=O)O)NC(=O)[C@H](Cc2c[nH]c3ccccc23)NC(=O)[C@H](CCCN=C(N)N)NC(=O)[C@@H](Cc2ccccc2)NC(=O)[C@H](Cc2cnc[nH]2)NC1=O [bremelanotide, Ac-Nle-cyclo(Asp-His-D-Phe-Arg-Trp-Lys)-OH, reference compound] |  |  |  |  |  |  | 4±0.535

Reference: patent publication US8729224B2, “Melanocortin receptor-specific peptides for treatment of female sexual dysfunction” (Palatin Technologies, Inc., priority 2008, dated 2014)
